# Assay results: article PMC6066574, “Resistance to the Plant Defensin NaD1 Features Modifications to the Cell Wall and Osmo-Regulation Pathways of Yeast” (Frontiers in Microbiology, 2018)
# Where two headings read alike, the source gives them in different places.
# How the values were obtained:
# [1] = test system: NaD1-resistant strains of S. cerevisiae compared to wild type BY4741; assay: Stress spot assay on YPD agar; assay type: cell-based, Saccharomyces cerevisiae; settings: for concentration that inhibited NaD1-resistant strains but not the wild type: YPD agar spot assay, Figure 6; for concentration at which sensitivity of the NaD1-resistant strains was observed: YPD agar, fivefold dilution spots, overnight 30°C, Supplementary Figures 3 and 4; for growth of NaD1-resistant strains relative to wild-type: result in words
# Procedure: YPD agar medium (25 mL) was amended to a final concentration of hydrogen peroxide (0.625 mM, 1.25 mM, 2.5 mM, 5 mM), CFW (1 μg/mL, 2.5 μg/mL, 5 μg/mL, 10 μg/mL), NaCl (100 mM, 200 mM, 300 mM), or SDS (12.5 μg/mL, 25 μg/mL, 50 μg/mL, 100 μg/mL) just before each plate was poured. Yeast cultures were grown overnight in 5 mL of YPD before dilution to an OD 600 nm of 0.1. A fivefold dilution series of each culture was spotted onto the plate (4 μL per spot) and incubated overnight at 30°C before being photographed.
# [2] = test system: S. cerevisiae NaD1-resistant strain C; assay: Antifungal growth assay, NaD1-R C; assay type: cell-based; settings: Saccharomyces cerevisiae, Table 1, ½ PDB, 24 h at 30°C, OD600, read-out: Caspofungin MIC
# Procedure: (§1) S. cerevisiae BY4741 was grown overnight at 30°C with agitation in 5 mL of YPD. The overnight culture was then diluted to an OD 600 nm of 0.01 in 50% strength PDB medium (½ PDB) before addition of antifungal molecules. Cultures were initially grown with the antifungal molecules at 0.5x the minimum inhibitory concentration (MIC) or 1x MIC alongside a negative control lacking antifungals. Three independent lines for the test and controls were grown at the same time. The cultures were incubated overnight at 30°C with agitation. […] Sub-culturing was stopped once growth occurred at 32 times the original MIC.
# (§2) Cultures that were more tolerant to the antifungal molecule were streaked out for single colonies on non-selective YPD agar. Three colonies were picked from each line, and their resistance was re-tested. The colony with the highest resistance to the antifungal was retained for further experimentation. The MIC of pure strains isolated from each culture was broadly equivalent (Supplementary Figure 1).
# (§3) Antifungal assays were performed as described in [Hayes et al. (2013)]. Briefly, cultures were grown overnight (30°C, 250 rpm) in 5 mL YPD and diluted to an OD600 of 0.01 in ½ PDB. […] The final OD600 was measured using a SpectraMAX M5e plate reader (Molecular Devices).
# [3] = test system: S. cerevisiae Caspofungin-R B; assay: Antifungal growth assay, Caspofungin-R B; assay type: cell-based; settings: Saccharomyces cerevisiae, Table 1, ½ PDB, 24 h at 30°C, OD600
# Procedure: as §1, §2, §3
# [4] = test system: S. cerevisiae BY4741; assay: Serial sub-culturing in the presence of antifungal to develop resistance; assay type: cell-based, Saccharomyces cerevisiae; settings: caspofungin-resistant lines
# Procedure: as §1
# [5] = test system: S. cerevisiae NaD1-resistant strain A; assay: Antifungal growth assay, NaD1-R A; assay type: cell-based; settings: Saccharomyces cerevisiae, Table 1, ½ PDB, 24 h at 30°C, OD600, read-out: Caspofungin MIC
# Procedure: as §1, §2, §3
# [6] = test system: caspofungin-resistant isolates of S. cerevisiae; assay: Antifungal growth assay, caspofungin-resistant isolates (stated together); assay type: cell-based, Saccharomyces cerevisiae
# Procedure: as §1, §2, §3
# [7] = test system: S. cerevisiae BY4741 wild-type; assay: Antifungal growth assay, wild-type strain; assay type: cell-based; settings: Saccharomyces cerevisiae
# Procedure: (§4) Antifungal assays were performed as described in [Hayes et al. (2013)]. Briefly, cultures were grown overnight (30°C, 250 rpm) in 5 mL YPD and diluted to an OD600 of 0.01 in ½ PDB. Antifungal molecules were prepared at 10x the assay concentration, and 10 μL was mixed with 90 μL of diluted yeast culture before incubation for 24 h at 30°C. The final OD600 was measured using a SpectraMAX M5e plate reader (Molecular Devices).
# [8] = test system: NaD1-resistant strains of S. cerevisiae; assay: Antifungal growth assay, NaD1-resistant strains (stated together); assay type: cell-based, Saccharomyces cerevisiae; settings: Figure 2B; result in words
# Procedure: as §1, §2, §3
# [9] = test system: S. cerevisiae Caspofungin-R A; assay: Antifungal growth assay, Caspofungin-R A; assay type: cell-based; settings: Saccharomyces cerevisiae, Table 1, ½ PDB, 24 h at 30°C, OD600
# Procedure: as §1, §2, §3
# [10] = test system: S. cerevisiae NaD1-resistant strain B; assay: Antifungal growth assay, NaD1-R B; assay type: cell-based; settings: Saccharomyces cerevisiae, Table 1, ½ PDB, 24 h at 30°C, OD600, read-out: Caspofungin MIC
# Procedure: as §1, §2, §3
# [11] = test system: no-treatment control lines of S. cerevisiae; assay: Antifungal growth assay, no-treatment control lines (stated together); assay type: cell-based; settings: Saccharomyces cerevisiae, read-out: MIC against no treatment control
# Procedure: as §1, §4
# [12] = test system: S. cerevisiae Caspofungin-R C; assay: Antifungal growth assay, Caspofungin-R C; assay type: cell-based; settings: Saccharomyces cerevisiae, Table 1, ½ PDB, 24 h at 30°C, OD600
# Procedure: as §1, §2, §3
smiles,measurement,setting,value
"O=S(=O)(O)c1cc(Nc2nc(Nc3ccccc3)nc(N(CCO)CCO)n2)ccc1/C=C/c1ccc(Nc2nc(Nc3ccccc3)nc(N(CCO)CCO)n2)cc1S(=O)(=O)O [CFW, calcofluor white]",concentration that inhibited NaD1-resistant strains but not the wild type,[1],10 µg/mL
same,concentration at which sensitivity of the NaD1-resistant strains was observed,[1],1 µg/mL
[Cl-].[Na+] [NaCl],growth of NaD1-resistant strains relative to wild-type,[1]; 200 mM NaCl in YPD agar,grew better than wild-type
CCCCCCCCCCCCOS(=O)(=O)[O-].[Na+] [SDS],concentration that inhibited NaD1-resistant strains but not the wild type,[1],100 µg/mL
same,concentration at which sensitivity of the NaD1-resistant strains was observed,[1],12.5 µg/mL
CC[C@H](C)C[C@H](C)CCCCCCCCC(=O)N[C@H]1C[C@@H](O)[C@@H](NCCN)NC(=O)[C@@H]2[C@@H](O)CCN2C(=O)[C@H]([C@H](O)CCN)NC(=O)[C@H]([C@H](O)[C@@H](O)c2ccc(O)cc2)NC(=O)[C@@H]2C[C@@H](O)CN2C(=O)[C@H]([C@@H](C)O)NC1=O [caspofungin],MIC,[2],0.025 µM
same,MIC,[3],0.5 µM
same,rounds of sub-culture to achieve growth at concentrations 32-fold higher than the initial MIC,[4],15 rounds
same,MIC,[5],0.025 µM
same,MIC,"[6]; Saccharomyces cerevisiae, read-out: MIC against caspofungin-resistant isolates",0.5 µM
same,fold more resistant than no treatment control / wild type (MIC ratio),[6]; caspofungin-resistant isolates versus no treatment control / wild type,25 fold
same,MIC,"[7]; Table 1, Wild-type, ½ PDB, 24 h at 30°C, OD600, read-out: Caspofungin MIC",0.02 µM
same,MIC,"[7]; initial MIC at the start of sub-culturing, read-out: initial MIC",0.01 µM
same,sensitivity of NaD1-resistant strains compared with wild type,[8],as sensitive to caspofungin as the wild-type strain
same,MIC,[9],0.5 µM
same,MIC,[10],0.025 µM
same,MIC,[11],0.02 µM
same,MIC,[12],0.5 µM
OO [hydrogen peroxide],growth of NaD1-resistant strains relative to wild-type,[1]; range of hydrogen peroxide concentrations in YPD agar,grew the same as the wild-type strain
